From patent US11445724B2, “Insecticidal compounds” (SYNGENTA PARTICIPATIONS AG, priority 2013, dated 2022)

Key:
Type in all cases: in vivo
[1] = system: Myzus persicae (Green peach aphid); assay: Myzus persicae (Green peach aphid) mortality, sprayed sunflower leaf discs; settings: foliar, 144 h, 200 ppm spray on sunflower leaf discs, mixed ages, mortality 6 DAT
[2] = system: Thrips tabaci (Onion thrips); assay: Thrips tabaci (Onion thrips) mortality, sprayed sunflower leaf discs; settings: foliar, 168 h, 200 ppm spray on sunflower leaf discs, mixed ages, mortality after 7 days
[3] = system: Spodoptera littoralis (Egyptian cotton leafworm); assay: Spodoptera littoralis (Egyptian cotton leafworm) mortality, sprayed cotton leaf discs; settings: foliar, 72 h, 200 ppm spray on cotton leaf discs, L1 larvae, mortality 3 DAT
[4] = system: Tetranychus urticae (Two-spotted spider mite); assay: Tetranychus urticae (Two-spotted spider mite) mortality, sprayed bean leaf discs; settings: foliar, 192 h, 200 ppm spray on bean leaf discs, mixed ages, egg, larval and adult mortality after 8 days
[5] = system: Plutella xylostella (Diamond back moth); assay: Plutella xylostella (Diamond back moth) larval mortality, artificial diet in 24-well MTP; settings: 144 h, application rate 200 ppm (concentration in well 18 ppm), L2 larvae, larval mortality after 6 days
[6] = system: Myzus persicae (Green peach aphid); assay: Myzus persicae (Green peach aphid) mortality, test compounds mixed with Sucrose solution under Parafilm; settings: 120 h, 12.5 ppm in Sucrose solution, infested pea seedlings on Parafilm, mortality 5 days after infestation
[7] = system: Diabrotica balteata (Corn root worm); assay: Diabrotica balteata (Corn root worm) larval mortality, artificial diet in 24-well MTP; settings: 120 h, application rate 200 ppm (concentration in well 18 ppm), L2 larvae, larval mortality after 5 days

O=C(Nc1cccc(C(=O)Nc2c(Br)cc(C(F)(C(F)(F)F)C(F)(F)F)cc2OC(F)F)c1F)c1ccncc1 [Compound 1]
≥ 80%: pest or weed control at 200 ppm [1] | pest or weed control at 200 ppm [2] | pest or weed control at 200 ppm [3] | pest or weed control at 200 ppm [4] | pest or weed control at 200 ppm [5] | pest or weed control at 12.5 ppm [6] | pest or weed control at 200 ppm [7]

CCN(C(=O)c1ccncc1)c1cccc(C(=O)Nc2c(Br)cc(C(F)(C(F)(F)F)C(F)(F)F)cc2OC(F)F)c1F [Compound 2, N-[3-[[2-bromo-6-(difluoromethoxy)-4-[1,2,2,2-tetrafluoro-1-(trifluoromethyl)ethyl]phenyl]carbamoyl]-2-fluoro-phenyl]-N-ethyl-pyridine-4-carboxamide]
≥ 80%: pest or weed control at 200 ppm [1] | pest or weed control at 200 ppm [2] | pest or weed control at 200 ppm [3] | pest or weed control at 200 ppm [4] | pest or weed control at 200 ppm [5] | pest or weed control at 12.5 ppm [6] | pest or weed control at 200 ppm [7]

COc1c(NC(=O)c2ccncc2)cccc1C(=O)Nc1c(Br)cc(C(F)(C(F)(F)F)C(F)(F)F)cc1OC(F)F [Compound 3]
≥ 80%: pest or weed control at 200 ppm [1] | pest or weed control at 200 ppm [2] | pest or weed control at 200 ppm [3] | pest or weed control at 200 ppm [4] | pest or weed control at 200 ppm [5] | pest or weed control at 12.5 ppm [6] | pest or weed control at 200 ppm [7]

CCN(C(=O)c1ccncc1)c1cccc(C(=O)Nc2c(Br)cc(C(F)(C(F)(F)F)C(F)(F)F)cc2OC(F)F)c1OC [Compound 4]
≥ 80%: pest or weed control at 200 ppm [1] | pest or weed control at 200 ppm [2] | pest or weed control at 200 ppm [3] | pest or weed control at 200 ppm [4] | pest or weed control at 200 ppm [5] | pest or weed control at 12.5 ppm [6] | pest or weed control at 200 ppm [7]

N#Cc1ccc(C(=O)Nc2cccc(C(=O)Nc3c(Br)cc(C(F)(C(F)(F)F)C(F)(F)F)cc3OC(F)F)c2F)cc1 [Compound 5]
≥ 80%: pest or weed control at 200 ppm [1] | pest or weed control at 200 ppm [2] | pest or weed control at 200 ppm [3] | pest or weed control at 200 ppm [4] | pest or weed control at 200 ppm [5] | pest or weed control at 12.5 ppm [6] | pest or weed control at 200 ppm [7]

COc1c(NC(=O)c2ccc(C#N)cc2)cccc1C(=O)Nc1c(Br)cc(C(F)(C(F)(F)F)C(F)(F)F)cc1OC(F)F [Compound 6]
≥ 80%: pest or weed control at 200 ppm [1] | pest or weed control at 200 ppm [2] | pest or weed control at 200 ppm [3] | pest or weed control at 200 ppm [4] | pest or weed control at 200 ppm [5] | pest or weed control at 12.5 ppm [6] | pest or weed control at 200 ppm [7]

CCN(C(=O)c1ccc(C#N)cc1)c1cccc(C(=O)Nc2c(Br)cc(C(F)(C(F)(F)F)C(F)(F)F)cc2OC(F)F)c1OC [Compound 9]
≥ 80%: pest or weed control at 200 ppm [1] | pest or weed control at 200 ppm [2] | pest or weed control at 200 ppm [3] | pest or weed control at 200 ppm [4] | pest or weed control at 200 ppm [5] | pest or weed control at 12.5 ppm [6] | pest or weed control at 200 ppm [7]

CCN(C(=O)c1ccc(C#N)cc1)c1cccc(C(=O)Nc2c(Br)cc(C(F)(C(F)(F)F)C(F)(F)F)cc2OC(F)F)c1F [Compound 10]
≥ 80%: pest or weed control at 200 ppm [1] | pest or weed control at 200 ppm [2] | pest or weed control at 200 ppm [3] | pest or weed control at 200 ppm [4] | pest or weed control at 200 ppm [5] | pest or weed control at 12.5 ppm [6] | pest or weed control at 200 ppm [7]

CCN(C(=O)c1cc[n+]([O-])cc1)c1cccc(C(=O)Nc2c(Br)cc(C(F)(C(F)(F)F)C(F)(F)F)cc2OC(F)F)c1F [Compound 11, N-[3-[[2-bromo-6-(difluoromethoxy)-4-[1,2,2,2-tetrafluoro-1-(trifluoromethyl)ethyl]phenyl]carbamoyl]-2-fluoro-phenyl]-N-ethyl-1-oxido-pyridin-1-ium-4-carboxamide]
≥ 80%: pest or weed control at 200 ppm [1] | pest or weed control at 200 ppm [2] | pest or weed control at 200 ppm [3] | pest or weed control at 200 ppm [4] | pest or weed control at 200 ppm [5] | pest or weed control at 12.5 ppm [6] | pest or weed control at 200 ppm [7]

CCN(C(=O)c1cc[n+]([O-])cc1)c1cccc(C(=O)Nc2c(Br)cc(C(F)(C(F)(F)F)C(F)(F)F)cc2OC(F)F)c1OC [Compound 12]
≥ 80%: pest or weed control at 200 ppm [1] | pest or weed control at 200 ppm [2] | pest or weed control at 200 ppm [3] | pest or weed control at 200 ppm [4] | pest or weed control at 200 ppm [5] | pest or weed control at 12.5 ppm [6] | pest or weed control at 200 ppm [7]

N#Cc1ccc(C(=O)Nc2cccc(C(=O)Nc3c(Cl)cc(C(F)(C(F)(F)F)C(F)(F)F)cc3OC(F)F)c2F)cc1 [Compound 13]
≥ 80%: pest or weed control at 200 ppm [1] | pest or weed control at 200 ppm [2] | pest or weed control at 200 ppm [3] | pest or weed control at 200 ppm [4] | pest or weed control at 200 ppm [5] | pest or weed control at 12.5 ppm [6] | pest or weed control at 200 ppm [7]

COc1c(NC(=O)c2ccc(C#N)cc2)cccc1C(=O)Nc1c(Cl)cc(C(F)(C(F)(F)F)C(F)(F)F)cc1OC(F)F [Compound 14, N-[2-chloro-6-(difluoromethoxy)-4-[1,2,2,2-tetrafluoro-1-(trifluoromethyl)ethyl]phenyl]-3-[(4-cyanobenzoyl)amino]-2-methoxy-benzamide]
≥ 80%: pest or weed control at 200 ppm [1] | pest or weed control at 200 ppm [2] | pest or weed control at 200 ppm [3] | pest or weed control at 200 ppm [4] | pest or weed control at 200 ppm [5] | pest or weed control at 12.5 ppm [6] | pest or weed control at 200 ppm [7]

O=C(Nc1cccc(C(=O)Nc2c(Cl)cc(C(F)(C(F)(F)F)C(F)(F)F)cc2OC(F)F)c1F)c1ccncc1 [Compound 15]
≥ 80%: pest or weed control at 200 ppm [1] | pest or weed control at 200 ppm [2] | pest or weed control at 200 ppm [3] | pest or weed control at 200 ppm [4] | pest or weed control at 200 ppm [5] | pest or weed control at 12.5 ppm [6] | pest or weed control at 200 ppm [7]

COc1c(NC(=O)c2ccncc2)cccc1C(=O)Nc1c(Cl)cc(C(F)(C(F)(F)F)C(F)(F)F)cc1OC(F)F [Compound 16]
≥ 80%: pest or weed control at 200 ppm [1] | pest or weed control at 200 ppm [2] | pest or weed control at 200 ppm [3] | pest or weed control at 200 ppm [4] | pest or weed control at 200 ppm [5] | pest or weed control at 12.5 ppm [6] | pest or weed control at 200 ppm [7]

CCN(C(=O)c1ccc(C#N)cc1)c1cccc(C(=O)Nc2c(Cl)cc(C(F)(C(F)(F)F)C(F)(F)F)cc2OC(F)F)c1F [Compound 17]
≥ 80%: pest or weed control at 200 ppm [1] | pest or weed control at 200 ppm [2] | pest or weed control at 200 ppm [3] | pest or weed control at 200 ppm [4] | pest or weed control at 200 ppm [5] | pest or weed control at 12.5 ppm [6] | pest or weed control at 200 ppm [7]

CCN(C(=O)c1ccc(C#N)cc1)c1cccc(C(=O)Nc2c(Cl)cc(C(F)(C(F)(F)F)C(F)(F)F)cc2OC(F)F)c1OC [Compound 18]
≥ 80%: pest or weed control at 200 ppm [1] | pest or weed control at 200 ppm [2] | pest or weed control at 200 ppm [3] | pest or weed control at 200 ppm [4] | pest or weed control at 200 ppm [5] | pest or weed control at 12.5 ppm [6] | pest or weed control at 200 ppm [7]

CCN(C(=O)c1ccncc1)c1cccc(C(=O)Nc2c(Cl)cc(C(F)(C(F)(F)F)C(F)(F)F)cc2OC(F)F)c1F [Compound 19]
≥ 80%: pest or weed control at 200 ppm [1] | pest or weed control at 200 ppm [2] | pest or weed control at 200 ppm [3] | pest or weed control at 200 ppm [4] | pest or weed control at 200 ppm [5] | pest or weed control at 12.5 ppm [6] | pest or weed control at 200 ppm [7]

CCN(C(=O)c1ccc([N+](=O)[O-])cc1Cl)c1cccc(C(=O)Nc2c(Cl)cc(C(F)(C(F)(F)F)C(F)(F)F)cc2OC(F)F)c1OC [Compound 152]
≥ 80%: pest or weed control at 200 ppm [2] | pest or weed control at 200 ppm [3] | pest or weed control at 200 ppm [4] | pest or weed control at 200 ppm [5] | pest or weed control at 12.5 ppm [6] | pest or weed control at 200 ppm [7]
